Laboratory results as given in ChEMBL document CHEMBL4831506, “Discovery of novel trimethoxyphenylbenzo[d]oxazoles as dual tubulin/PDE4 inhibitors capable of inducing apoptosis at G2/M phase arrest in glioma and lung cancer cells” (Eur J Med Chem, 2021).
Activity calls are given as the source filed them. The rule behind the calls is not given here.

Tests used:
[1] = tested on: U-251; experiment: Induction of apoptosis in human U-251 cells assessed as increase in apoptotic cells at 500 nM measured after 24 hrs by PI/FITC analysis (reference value: 2.39%); assay type: functional
[2] = tested on: A549; experiment: Cell cycle arrest in human A549 cells assessed as S phase at 50 nM measured after 24 hrs by propidium iodide staining based flow cytometry analysis (reference value: 14.78%); assay type: functional
[3] = tested on: U-251; experiment: Cell cycle arrest in human U-251 cells assessed as G2/M phase at 200 nM measured after 24 hrs by propidium iodide staining based flow cytometry analysis (reference value: 14.43%); assay type: functional
[4] = tested on: A549; experiment: Cell cycle arrest in human A549 cells assessed as increase in cyclin B1 expression by Western blot analysis; assay type: functional, cell-based; conditions: dose 50-500 nM
[5] = tested on: U-251; experiment: Cell cycle arrest in human U-251 cells assessed as S phase at 500 nM measured after 24 hrs by propidium iodide staining based flow cytometry analysis (reference value: 18.23%); assay type: functional
[6] = tested on: A549; experiment: Induction of apoptosis in human A549 cells assessed as increase in apoptotic cells at 500 nM measured after 24 hrs by PI/FITC analysis (reference value: 1.437%); assay type: functional
[7] = molecular target: 3',5'-cyclic-AMP phosphodiesterase 4C (Homo sapiens, UniProt Q08493); experiment: Inhibition of PDE4 CAT (unknown origin)
[8] = tested on: A549; experiment: Cell cycle arrest in human A549 cells assessed as G2/M phase at 50 nM measured after 24 hrs by propidium iodide staining based flow cytometry analysis (reference value: 6.08%); assay type: functional
[9] = tested on: U-251; experiment: Induction of apoptosis in human U-251 cells assessed as increase in early apoptotic cells at 200 nM measured after 24 hrs by PI/FITC analysis (reference value: 1.12%); assay type: functional
[10] = tested on: U-251; experiment: Cell cycle arrest in human U-251 cells assessed as G2/M phase at 500 nM measured after 24 hrs by propidium iodide staining based flow cytometry analysis (reference value: 14.43%); assay type: functional
[11] = molecular target: Tubulin (Homo sapiens) (UniProt P68371+Q9H4B7+P0DPH7+P68366+Q13509+Q71U36+P04350+Q3ZCM7+P07437+P68363+Q9BQE3+Q6PEY2+Q13885+Q9BVA1+Q9BUF5); experiment: Inhibition of tubulin assembly in human A549 cells measured after 24 hrs; assay type: cell-based
[12] = tested on: U-251; experiment: Cell cycle arrest in human U-251 cells assessed as G0/G1 phase at 1000 nM measured after 24 hrs by propidium iodide staining based flow cytometry analysis (reference value: 67.34%); assay type: functional
[13] = species: Sus scrofa; experiment: Inhibition of pig brain tubulin polymerization at 10 uM by spectrometric method relative to control; assay type: tissue-based
[14] = tested on: U-251; experiment: Cell cycle arrest in human U-251 cells assessed as G0/G1 phase at 200 nM measured after 24 hrs by propidium iodide staining based flow cytometry analysis (reference value: 67.34%); assay type: functional
[15] = tested on: A549; experiment: Induction of apoptosis in human A549 cells assessed as increase in late apoptotic cells at 500 nM measured after 24 hrs by PI/FITC analysis (reference value: 0.955%); assay type: functional
[16] = tested on: U-251; experiment: Antiproliferative activity against human U-251 cells after 48 hrs by MTT assay; assay type: functional, cell-based; conditions: U-251, 48 h
[17] = tested on: A549; experiment: Induction of apoptosis in human A549 cells assessed as increase in late apoptotic cells at 200 nM measured after 24 hrs by PI/FITC analysis (reference value: 0.955%); assay type: functional
[18] = tested on: A549; experiment: Induction of apoptosis in human A549 cells assessed as increase in early apoptotic cells at 500 nM measured after 24 hrs by PI/FITC analysis (reference value: 0.955%); assay type: functional
[19] = tested on: U-251; experiment: Induction of apoptosis in human U-251 cells assessed as increase in late apoptotic cells at 500 nM measured after 24 hrs by PI/FITC analysis (reference value: 0.311%); assay type: functional
[20] = tested on: U-251; experiment: Induction of apoptosis in human U-251 cells assessed as increase in necrotic cells at 1000 nM measured after 24 hrs by PI/FITC analysis (reference value: 0.301%); assay type: functional
[21] = species: Sus scrofa; experiment: Inhibition of pig brain tubulin polymerization at 1 uM by spectrometric method relative to control; assay type: tissue-based
[22] = tested on: A549; experiment: Induction of apoptosis in human A549 cells assessed as increase in late apoptotic cells at 50 nM measured after 24 hrs by PI/FITC analysis (reference value: 0.955%); assay type: functional
[23] = tested on: A549; experiment: Cell cycle arrest in human A549 cells assessed as G0/G1 phase at 500 nM incubated for 24 hrs by propidium iodide staining based flow cytometry analysis (reference value: 79.14%); assay type: functional
[24] = tested on: A549; experiment: Cell cycle arrest in human A549 cells assessed as decrease in cdc25C expression by Western blot analysis; assay type: functional, cell-based; conditions: dose 50-500 nM
[25] = tested on: A549; experiment: Induction of apoptosis in human A549 cells assessed as increase in necrotic cells at 200 nM measured after 24 hrs by PI/FITC analysis (reference value: 0.365%); assay type: functional
[26] = tested on: A549; experiment: Cell cycle arrest in human A549 cells assessed as S phase at 500 nM measured after 24 hrs by propidium iodide staining based flow cytometry analysis (reference value: 14.78%); assay type: functional
[27] = tested on: U-251; experiment: Induction of apoptosis in human U-251 cells assessed as increase in necrotic cells at 200 nM measured after 24 hrs by PI/FITC analysis (reference value: 0.301%); assay type: functional
[28] = tested on: A549; experiment: Induction of apoptosis in human A549 cells assessed as increase in early apoptotic cells at 200 nM measured after 24 hrs by PI/FITC analysis (reference value: 0.955%); assay type: functional
[29] = tested on: A549; experiment: Induction of apoptosis in human A549 cells assessed as increase in viable cells at 50 nM measured after 24 hrs by PI/FITC analysis (reference value: 98.4%); assay type: functional
[30] = tested on: U-251; experiment: Induction of apoptosis in human U-251 cells assessed as increase in late apoptotic cells at 200 nM measured after 24 hrs by PI/FITC analysis (reference value: 0.311%); assay type: functional
[31] = tested on: U-251; experiment: Cell cycle arrest in human U-251 cells assessed as G2/M phase at 1000 nM measured after 24 hrs by propidium iodide based flow cytometry analysis (reference value: 14.43%); assay type: functional
[32] = tested on: A549; experiment: Induction of apoptosis in human A549 cells assessed as increase in early apoptotic cells at 50 nM measured after 24 hrs by PI/FITC analysis (reference value: 0.955%); assay type: functional
[33] = tested on: A549; experiment: Cell cycle arrest in human A549 cells assessed as G2/M phase at 500 nM measured after 24 hrs by propidium iodide staining based flow cytometry analysis (reference value: 6.08%); assay type: functional
[34] = tested on: A549; experiment: Antiproliferative activity against human A549 cells after 48 hrs by MTT assay; assay type: functional, cell-based; conditions: A549, 48 h
[35] = tested on: U-251; experiment: Cell cycle arrest in human U-251 cells assessed as S phase at 200 nM measured after 24 hrs by propidium iodide staining based flow cytometry analysis (reference value: 18.23%); assay type: functional
[36] = tested on: A549; experiment: Induction of apoptosis in human A549 cells assessed as increase in viable cells at 500 nM measured after 24 hrs by PI/FITC analysis (reference value: 98.4%); assay type: functional
[37] = tested on: U-251; experiment: Induction of apoptosis in human U-251 cells assessed as increase in late apoptotic cells at 1000 nM measured after 24 hrs by PI/FITC analysis (reference value: 0.311%); assay type: functional

3',5'-cyclic-AMP phosphodiesterase 4C, sequence (Q08493 whole entry): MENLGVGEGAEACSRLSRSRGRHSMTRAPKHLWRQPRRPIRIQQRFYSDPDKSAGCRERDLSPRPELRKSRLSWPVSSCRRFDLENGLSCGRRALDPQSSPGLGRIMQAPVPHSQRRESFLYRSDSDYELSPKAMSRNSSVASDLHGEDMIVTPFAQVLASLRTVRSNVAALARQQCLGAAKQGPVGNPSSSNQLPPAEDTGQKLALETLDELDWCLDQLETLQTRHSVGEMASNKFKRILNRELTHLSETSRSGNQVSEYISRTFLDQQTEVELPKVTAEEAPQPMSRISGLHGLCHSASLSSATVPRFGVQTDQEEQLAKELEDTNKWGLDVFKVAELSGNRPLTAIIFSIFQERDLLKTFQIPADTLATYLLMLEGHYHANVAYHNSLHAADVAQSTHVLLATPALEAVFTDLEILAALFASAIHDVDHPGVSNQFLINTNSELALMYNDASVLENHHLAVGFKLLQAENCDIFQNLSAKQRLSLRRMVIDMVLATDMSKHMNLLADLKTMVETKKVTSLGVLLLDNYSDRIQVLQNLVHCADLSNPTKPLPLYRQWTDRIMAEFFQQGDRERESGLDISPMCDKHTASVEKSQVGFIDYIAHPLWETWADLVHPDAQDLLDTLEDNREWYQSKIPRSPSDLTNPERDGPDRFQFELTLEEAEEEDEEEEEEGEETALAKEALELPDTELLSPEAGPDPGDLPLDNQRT

`COc1cc(-c2cccc3nc(-c4ccc5cc[nH]c5c4)oc23)cc(OC)c1OC` was tested. Which Activity [1] did it give?
Its Activity is 20.98%.

And the Activity [2]?
The Activity was 24.79%.

And the Activity [3]?
The Activity was 37.97%.

And the Activity [4]?
The Activity was “Dose-Dependent Effect”.

What about the Activity [5] of the same compound?
The Activity was 22.47%.

And the Activity [6]?
Its Activity is 26.5%.

What about the IC50 [7] of the same compound?
The IC50 was 1250 nM.

And the Activity [8]?
The Activity was 19.43%.

And the Activity [9]?
The Activity was 3.09%.

And the Activity [10]?
The Activity was 42.9%.

And the inhibition [11]?
Its inhibition is “Active”.

What about the Activity [12] of the same compound?
Its Activity is 13.54%.

And the inhibition [13]?
The inhibition was 86%.

And the Activity [14]?
The Activity was 43.71%.

And the Activity [15]?
Its Activity is 15.4%.

What about the IC50 [16] of the same compound?
The IC50 was 300 nM.

What about the Activity [17] of the same compound?
Its Activity is 0.85%.

What about the Activity [18] of the same compound?
Its Activity is 11.1%.

What about the Activity [19] of the same compound?
Its Activity is 9.13%.

And the Activity [20]?
Its Activity is 1.66%.

And the inhibition [21]?
Its inhibition is 40%.

What about the Activity [22] of the same compound?
Its Activity is 7.23%.

And the Activity [23]?
The Activity was 3.89%.

And the Activity [24]?
The Activity was “Dose-Dependent Effect”.

What about the Activity [25] of the same compound?
Its Activity is 1.61%.

And the Activity [26]?
The Activity was 28.03%.

What about the Activity [27] of the same compound?
The Activity was 2.01%.

And the Activity [28]?
The Activity was 9.7%.

What about the Activity [29] of the same compound?
The Activity was 86.9%.

And the Activity [30]?
The Activity was 6.95%.

What about the Activity [31] of the same compound?
Its Activity is 71.69%.

What about the Activity [32] of the same compound?
The Activity was 5.32%.

What about the Activity [33] of the same compound?
The Activity was 68.09%.

What about the IC50 [34] of the same compound?
The IC50 was 55 nM.

And the Activity [35]?
Its Activity is 18.32%.

What about the Activity [36] of the same compound?
Its Activity is 70.7%.

And the Activity [37]?
The Activity was 15.8%.
